# Values of other authors as cited in US20050042289A1, “Tablets and methods for modified release of hydrophylic and other active agents” (Yamanouchi Pharma Technologies, Inc., priority 2003, published 2005).
# Counter-ions that a name gives are not always drawn. Like-named read-outs stand apart in the source and are kept apart here.
# Conditions: in water at 25° C., hemihydrate
compound,measurement,setting,value
"CC1OC2(CS1)CN1CCC2CC1 (racemic) [SNI-2011, (+/−)-cis-2-methylspiro [1,3-oxathiolane-5,3′-quinuclidine] hydrochloride, hemihydrate]",water solubility,listed as Cevimeline hydrochloride,766 mg/mL
same,water solubility,listed as methylspiro hydrochloride salt,~800 mg/mL
same,water solubility,hydrochloride,"about 1,400 mg/ml"
